Converted amounts (≈) assume the structure as drawn. “And” between values parts separate entries of the source, which are not always exact repeats. Identical values can stand only once. Blank lines part the entries; values can stand above or below the molecule they belong to.
Tests used:
[1] = system: human cytomegalovirus strains HCMV-AD169; assay: In vitro inhibitory activity against human cytomegalovirus (CPE in MRC-5 cells); assay type: cell-based; conditions: for CPE of each well: 4 wells
Description: The eye drop delivery systems of ganciclovir prepared in the Examples were tested for its in vitro inhibitory activities against human cytomegalovirus (HCMV).
Human embryo lung fibroblasts (MRC-5) infected with human cytomegalovirus strains HCMV-AD169 were chosen and used in the experiment, and the antiviral activity of ganciclovir was investigated with half effective dose (EC50). Four groups were included in the experiment, that is, the test group of the eye drop delivery systems prepared in the Examples, the test group of ganciclovir technical drug, the negative control group (MRC-5 cells), and the positive control group (MRC-5 cells infected with HCMV-AD169). The samples of both test groups were diluted with the culture media to obtain 6 diluted concentrations: 500 μg/mL, 250 μg/mL, 125 μg/mL, 62.5 μg/mL, 31.25 μg/mL, and 15.63 μg/mL, and 4 wells were set for each diluted concentration. Cytopathic effect (CPE) was used as an indicator: 0 for no cytopathy, 1 for ≤25% cytopathy, 2 for 25%-50% cytopathy, 3 for 50%-75% cytopathy, and 4 for 75%-100% cytopathy. The half effective dose (EC50) was calculated using Reed-Munch method: EC50=10n; n=[(logarithm of the dilution degree corresponding to an efficiency of >50%)+(percentage of >50% efficiency−50%)/(percentage of >50% efficiency−percentage of <50% efficiency)×logarithm of the dilution coefficient.
The experimental procedures were as follows: MRC-5 cells were adjusting to approximate 1.5×10^5/mL, and then added a 96 well plate, 100 μL of culture media for each well. The plate was cultured in a 37° C., 5% CO2 cell incubator, and then the supernatant was discarded after the cells adhered to the wall as a monolayer. Except for the control groups, […] were added to each well of both test groups at a concentration of 100×TC50 (half of the virus infected cells obtained in the pre-experiment) and then incubated for 2 h. The supernatant was discarded. A series of test samples were added at 100 μL/well, and then the plate was further cultivated. The CPE of each well was observed. When the CPE of the positive control group reached more than 90%, the CPE of each well was recorded, and the half effective dose (EC50) was calculated using the Reed Munch method.

[2] = system: Pseudomonas aeruginosa ATCC27853; assay: In vitro bacteriostasis test (MIC, broth microdilution); assay type: cell-based; conditions: read-out: Minimum inhibitory concentration (MIC)
Description: (§1) The in vitro bacteriostasis test (MIC) was carried out on the moxifloxacin eye drop delivery system prepared in the Example. The moxifloxacin technical drug was used as the control, while the moxifloxacin eye drop delivery system prepared in Example 6 was used as the test sample, to prepare a drug sensitive plate, so that the drug sensitive plate contained 7-8 diluted concentrations of moxifloxacin technical drug (the control) and the test sample, which was obtained by dilution in a ratio of 1:2. 25 bacterial strains incubated for 18 h-24 h were chosen using inoculation loop, and transferred into sterile physiological saline to form a bacterial suspension equivalent to 0.5 MCF; the bacterial suspension was added to the liquid drug sensitive media, in which the ratio of the bacterial suspension to the liquid media was 1:200, and mixed well, then 100 μL of diluted bacterial solution was added to each well; the media was incubated at 35° C.±2° C. for 16-20 h; the growth of bacteria in each well was determined by turbidity, and observed from low concentration to high concentration. The minimum drug concentration that could inhibit bacterial growth was the MIC of the drug.

[3] = system: Haemophilus influenza ATCC49247; assay: as above; assay type: cell-based; conditions: read-out: Minimum inhibitory concentration (MIC)
Description: as §1

[4] = system: Streptococcus pneumoniae ATCC49619; assay: as above; assay type: cell-based; conditions: read-out: Minimum inhibitory concentration (MIC)
Description: as §1

[5] = system: Staphylococcus aureus ATCC29213; assay: as above; assay type: cell-based; conditions: read-out: Minimum inhibitory concentration (MIC)
Description: as §1

[6] = system: Enterococcus faecalis ATCC29212; assay: as above; assay type: cell-based; conditions: read-out: Minimum inhibitory concentration (MIC)
Description: as §1

Streptococcus pneumoniae = assay: as above; assay type: cell-based; conditions: 3 unnamed strains (one per table line), read-out: Minimum inhibitory concentration (MIC)
Description: as §1

[7] = system: Escherichia coli ATCC25922; assay: as above; assay type: cell-based; conditions: read-out: Minimum inhibitory concentration (MIC)
Description: as §1

[8] = API concentration in rat vitreous body after eye drops (LC/MS/MS); assay type: in vivo, Sprague Dawley (SD) rats; conditions: 0.5 h after eye drops, 20 μL/eye; for concentration at 0.5 h: Sprague Dawley, rat, vitreous body, topical, read-out: API concentration in the vitreous body (vitreum) of rats
Description: Unless otherwise stated, the method for verifying the result of delivering medicaments to the posterior segment of the eye was as follows:
Experimental instrument and equipment: High performance liquid chromatography, model: LC-20AD (Shimadzu, Japan); mass spectrometer: model: API4000 triple quadrupole mass spectrometer (Applied Biosystems, USA); chromatographic column: Fortis Pace C18 […], 2.1×30 mm (Fortis, UK).
Rats: Healthy adult Sprague Dawley (SD) rats were divided into a test group and a control group, with 6 eyes in each group. The test group received eye drops of the ophthalmic preparation prepared in the Example of the present invention, while the control group received the suspension of medicament (2 mg) in 5 mL of physiological saline (vortex shaking prior to use), at a dosage of 20μL/eye. 0.5 h or 1 h after administration, the animals were euthanized, and the vitreous bodies were quickly collected. The vitreous samples were homogenized and stored at-80° C. To 10 μL of vitreous homogenate, was added 90 μL of 95% ethanol, and then the solution was mixed under ultrasonic for 2 min, followed by vortex mixing for 1 min, to obtain the vitreous homogenate; to 50 μL of the homogenate, was added 175 μL of methanol, and then the resultant solution was vortex mixed for 3 min, and centrifuged at 4° C. and 12000 rpm for 10 min. The supernatant was filtered using a 0.45 μm needle filter. The filtrate was subjected to LC/MS/MS (Positive ion mode, MRM SCAN) analysis.

concentration at 0.5 h [8]: < 1 ng/g
SMILES: C[C@@H]1C[C@H]2[C@@H]3CCC4=CC(=O)C=C[C@]4(C)[C@@]3(F)[C@@H](O)C[C@]2(C)[C@@]1(O)C(=O)CO [dexamethasone]

API concentration in the vitreous body (vitreum) of rats [8]: < 1 ng/g
SMILES: O=C(O)CCCC[C@@H]1CCSS1 (racemic) [lipoic acid]

Further lines, the molecule ahead of its results:

SMILES: Nc1nc(O)c2ncn(COC(CO)CO)c2n1 [Ganciclovir technical drug, ganciclovir]
Effective rate ([1]; 15.63 μg/mL): 21% | CPE of each well ([1]; 15.63 μg/mL): 4 (4 for 75%-100% cytopathy) and 3 (3 for 50%-75% cytopathy) | Effective rate ([1]; 31.25 μg/mL): 35% | CPE of each well ([1]; 31.25 μg/mL): 3 (3 for 50%-75% cytopathy) | Effective rate ([1]; 62.5 μg/mL): 64% | CPE of each well ([1]; 62.5 μg/mL): 2 (2 for 25%-50% cytopathy) and 3 (3 for 50%-75% cytopathy) | Effective rate ([1]; 125 μg/mL): 77% | CPE of each well ([1]; 125 μg/mL): 2 (2 for 25%-50% cytopathy) and 1 (1 for ≤25% cytopathy) | Effective rate ([1]; 250 μg/mL): 91% | Effective rate ([1]; 500 μg/mL): 97%

SMILES: COc1c(N2C[C@@H]3CCCN[C@@H]3C2)c(F)cc2c(=O)c(C(=O)O)cn(C3CC3)c12 [Moxifloxacin, moxifloxacin]
MIC [2]: 4 µg/mL (≈ 9.96 µM) | MIC [3]: ≤ 0.032 µg/mL | MIC [4]: 0.12 µg/mL (≈ 0.299 µM) | MIC [5]: 0.12 µg/mL (≈ 0.299 µM) | MIC [6]: 0.5 µg/mL (≈ 1.25 µM) | MIC (Streptococcus pneumoniae): 0.25 µg/mL (≈ 0.623 µM) | MIC [7]: 0.06 µg/mL (≈ 0.149 µM)

SMILES: C[C@H]1c2cccc(O)c2C(=O)C2=C(O)[C@]3(O)C(=O)C(C(N)=O)=C(O)[C@@H](N(C)C)[C@@H]3[C@@H](O)[C@@H]21 [doxycycline]
concentration at 0.5 h [8]: < 1 ng/g
